Data taken from article PMC10447463, “Data-mining unveils structure–property–activity correlation of viral infectivity enhancing self-assembling peptides” (Nature Communications, 2023).
Several values for one entry are separate records, joined by “and”; a condition that tells them apart may be missing. Equal values may be shown once. Read-outs that look alike come from different tables or passages of the source.

Columns and labels:
[1] = Turbidity, derived count rate of scattered light; format: physicochemical; conditions: for Count Rate / kcps: derived count rate of scattered light at 633 nm, 173°, from zeta-potential measurement, 0.1 mg/mL in 1 mM KCl after 1 d at 1 mg/mL in PBS, turbidity / microscopic aggregation, mean of triplicate; for Log Count Rate: log of derived count rate
Description: 4 µL of 1 mg/mL peptide fibrils solution is added to a 20 µL, 50 µM ThT–solution in PBS. The mixture is incubated for 15 min at RT to allow binding of ThT dye with β–sheet rich structures. For reference PBS (4 µL) was added instead of peptide fibril solution. The samples were placed in black UV Star® 384 microliter well–plates (Greiner bio–one). Fluorescence spectra were recorded on an Infinite® M1000 PRO microplate reader (Tecan) at λem = 488 nm upon excitation at λex = 440 nm with 10 nm bandwidths and multiple reads per well (3×3). Measurements were repeated in triplicates and averaged with standard deviation. […] Zeta-Potential. For the determination of the surface charge of aggregated peptides zeta-potential measurements were conducted with a Zetasizer Nano ZS, Malvern Instruments. Unless stated otherwise the peptides were dissolved from DMSO (10 mg/mL) in PBS (pH 7.4) to concentration of 1 mg/mL and incubated for 1d at RT. Just before the measurement the 60 µL of the peptides were further diluted in 600 µL KCl (aq, 1 mM) in a 1 mL disposable folded capillary cells (DTS–1060, Zetasizer Nano series, Malvern). The zeta potential of the peptides was derived from the electrophoretic mobility based on the Smoluchowski formula. All measurements were averaged over two individually performed experiments and conducted in triplicates for each sample. Aggregate analysis. […] Furthermore, fluorescence microscopy was conducted by staining 1 µL preformed fibrils (1 mg/mL) with 9 µL ThT (50 µM). Brightfield microscopy was performed simultaneously to evaluate aggregation also for non ThT-active fibrils. The measurements were performed on a Leica DMi8 microscope with 10x air objective and equipped with a Leica MC170 HD camera with a filter setting λem = 527/30 nm upon excitation at λex = 480/40 nm) and processed with the Leica LASX software. To quantify size and number of microscopic aggregation of particles > 10 µm^2 at least 3 independently measured images were analyzed via the 3D object counter analysis tool of ImageJ, v 1.53f51. Sum–frequency generation. The SFG experiments were carried out with a femtosecond Ti: Sapphire amplified laser system (Spitfire Ace, Spectra–Physics, 800 nm, 40 fs, 1 kHz) with 5 W output power. We used 2 W to pump an optical parametric amplifier (TOPAS, light conversion) with a non–collinear difference frequency generation stage to generate broadband IR pulses. Another 1 W of the laser output passed through an etalon to generate narrowband visible pulses (10 cm^-1). The incident angles of the visible and IR beams were 36° and 41° with respect to the surface normal, respectively. The visible (13 µJ) and IR (5 µJ) pulses were overlapped spatially and temporally at the sample position. Subsequently, the generated SFG pulse was guided into a spectrograph (Acton SP 300i, Princeton Instruments), and detected with an EMCCD (Newton, Andor Technology). To avoid IR absorption of water vapor, we purged N2 for the measurement. All spectra were collected in the ssp (denoting s-, s- and p-polarized SFG, visible and IR, respectively) polarization combination. The spectra were normalized to the non–resonant signal taken from z–cut quartz after subtracting a background spectrum. […]
ways to determine turbidity of samples, this can be via transmittance and via scattering. Transmittance […]
as it is an easy and fast method.10,11 However, transmittance contributes not only from µm-sized aggregates but also nm-sized aggregates such as distinct fibrils, which makes hard to distinguish between fibril formation and micrometer sized aggregation. Although dynamic light scattering is a frequently applied method for determination of particle size, it cannot be conducted in solutions with anisotropic aggregates in micrometer size range, since the Stokes-Einstein relation is only applicable for homogeneous […] spherical particles.12 Further models describing scattering intensity and […]

[2] = format: physicochemical; design: key to Fibril / Fibril Formation / TEM 2cat / Fibril: 1 = fibrils present; 0 non-fibrillar structures; conditions: for Fibril / Fibril Formation: 1 mg/mL, uranyl acetate stain, qualitative
Description: For ATR FT–IR spectroscopy measurements, 200 µL of the respective 1 mg/mL PNF solution was lyophilized and the resulting powder used for measurement. All spectra were recorded on a Bruker Tensor 27 spectrometer with a diamond crystal as ATR element (PIKE MiracleTM, spectral resolution 2 cm^-1). Every sample was measured with 64 scans. Data were analyzed with OriginLab software and calculation of β–sheet content was conducted according to a previous report. TEM. For TEM measurements 5 µL of PNF fibrils (1 mg/mL) were placed on copper grids coated with carbon and formvar layer (300 mesh, Plano GmbH). After 10 min incubation time, the grids were staining with 4% uranyl acetate solution for 2.5 min and washed with water. Measurements were performed on a Jeol 1400 electron microscope with 120 kV acceleration voltage. CR Assay. For the determination of the amount of peptide monomer converting into nanostructures the amine reactive dye fluorescamine was used analogous to a previous reported protocol. Briefly, 100 µL of the preformed PNF solution was centrifuged in a Vivaspin 500 tube (3 kDa MWCO) to separate fibers from free peptide monomer (16200 x g, 4 °C, 45 min). The filtrate and 100 μL of the non-filtered PNF sample were lyophilized and dissolved in 30 μL DMSO. 10 μL of the filtrate and non-filtered DMSO samples were submitted in a black UV Star® 384 microliter well–plates (Greiner bio–one) and 3 μL of the fluorescamine solution (10 mg/mL, DMSO) was added to measure the fluorescence enhancement. After 20 min of incubation at RT, fluorescence was recorded on an Infinite® M1000 PRO microplate reader (Tecan) at λem = 470 nm upon excitation at λex = 365 nm with 10 nm bandwidths and multiple reads per well (3×3). Measurements were repeated in triplicates and averaged with standard deviation. All values were calculated as n-fold fluorescence enhancement (DMSO only as a reference was set to 1). The conversion rate CR was defined according to the equation Eq. (3).3 CR=100−100×fluorescenceintensityfiltrate/fluorescenceintensityoriginal[%]
1. Remarks on experimental parameters and bioinformatic descriptors
1.1 Experimental parameters
Transmission electron microscopy (TEM) measurements. TEM measurements were used to control if peptides assemble. The assemblies were categorized in non -fibrillar structures (no assembly, […]
grid but only amorphous aggregates. In contrast, peptides defined as fibrillar may also include amorphous structures. Amongst nonfibrillar assemblies also amorphous aggregates are summarized.
Amorphous aggregates are defined as structures with high β-sheet content which lack long-range order, that is crystallinity or fibril formation. It is generally assumed that these structures might be

[3] = Zeta-potential measurement; format: physicochemical; conditions: for Zeta pot. / mV: 1 mg/mL in PBS pH 7.4 from 10 mg/mL DMSO stock, 1 d RT, 60 µL diluted in 600 µL 1 mM KCl, Zetasizer Nano ZS, Smoluchowski, mean of triplicate
Outline: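 PBS pH 7.4, 1 mg/mL peptide (DMSO stock), 1 d RT aggregation; diluted in 1 mM KCl pre-read; mobility → zeta (Smoluchowski); n = 3, 2 expts averaged.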

[4] = Turbidity, derived count rate of scattered light; format: physicochemical; conditions: for Count Rate: derived count rate of scattered light (turbidity); for Log10 Count Rate: turbidity, derived count rate of scattered light, data of Figure 2D
[5] = Log10 of derived count rate of scattered light (turbidity)
[6] = log10 of derived count rate of scattered light (turbidity)
[7] = turbidity, Log10 of derived count rate of scattered light, Figure 3A source data
[8] = Fig S10 panel D, fibril category by TEM
[9] = TEM, 1 = fibrils present, 0 = non-fibrillar
[10] = TEM, 1 = fibrils present, 0 = non-fibrillar structures
[11] = category: fibrils present or non-fibrillar
[12] = zeta potential of peptide assemblies
[13] = zeta-potential of peptide, source data of Figure 2C
[14] = zeta-potential of the peptide assemblies, mean, Figure 3A source data
[15] = FigS12 panel A, fibril category by TEM
[16] = logarithm of count rate in kcps
[17] = turbidity, log10 of derived count rate of scattered light

CEFEFQFNMWQ
Log10 Count Rate [1, 5]: 2.27
Count Rate / kcps [1]: 186 kcps
Log10 Count Rate [1, 6]: 2.27
Log10 Count Rate [1, 7]: 2.27
TEM 2cat [2, 8]: 1
Fibril ([2]; Fig S10 panel E): 1
Fibril / Fibril Formation ([2]; TEM): 1
Fibril [2, 9]: 1
Fibril [2, 10]: 1
TEM 2cat [2, 11]: 1
Zeta-Pot. [3, 12]: -34.23
Zeta-Potential / mV [3, 13]: -24.5 mV
Zeta-Potential / mV [3, 14]: -34.23 mV
Count Rate [4]: 186.3
Log10 Count Rate [4]: 2.27

CEIEIQINM
Log10 Count Rate [1, 5]: 1.767
Count Rate / kcps [1]: 58 kcps
Log10 Count Rate [1, 6]: 1.767
Log10 Count Rate [1, 7]: 1.767
TEM 2cat [2, 8]: 1
Fibril ([2]; Fig S10 panel E): 1
TEM 2cat [2, 15]: 1
Fibril ([2]; FigS12 panel B, TEM): 1
Fibril / Fibril Formation ([2]; TEM): 1
Fibril [2, 9]: 1
Fibril [2, 10]: 1
Zeta-Pot. [3, 12]: -15.3
Zeta-Potential / mV [3, 13]: -22.07 mV
Zeta-Potential / mV [3, 14]: -15.3 mV
Count Rate [4]: 58.43
Log10 Count Rate [4]: 1.767

CEIEIQINMWQ
Log10 Count Rate [1, 5]: 3.196
Count Rate / kcps [1]: 1570 kcps
Log10 Count Rate [1, 6]: 3.196
Log10 Count Rate [1, 7]: 3.196
TEM 2cat [2, 8]: 1
Fibril ([2]; Fig S10 panel E): 1
Fibril / Fibril Formation ([2]; TEM): 1
Fibril [2, 9]: 1
Fibril [2, 10]: 1
TEM 2cat [2, 11]: 1
Zeta-Pot. [3, 12]: -25.8
Zeta-Potential / mV [3, 13]: -26.07 mV
Zeta-Potential / mV [3, 14]: -25.8 mV
Count Rate [4]: 1570
Log10 Count Rate [4]: 3.196

CKAKAQA
Log10 Count Rate [1, 5]: 2.56
Count Rate / kcps [1]: 363 kcps
Log10 Count Rate [1, 6]: 2.56
Log10 Count Rate [1, 7]: 2.56
TEM 2cat [2, 8]: 0
Fibril ([2]; Fig S10 panel E): 0
TEM 2cat [2, 15]: 0
Fibril ([2]; FigS12 panel B, TEM): 0
Fibril / Fibril Formation ([2]; TEM): 0
Fibril [2, 9]: 0
Fibril [2, 10]: 0
Zeta-Pot. [3, 12]: -8.01
Zeta-Potential / mV [3, 13]: -5.031 mV
Zeta-Potential / mV [3, 14]: -8.01 mV
Count Rate [4]: 362.7
Log10 Count Rate [4]: 2.56

CKAKAQANM
Log10 Count Rate [1, 5]: 2.317
Count Rate / kcps [1]: 207 kcps
Log10 Count Rate [1, 16]: 2.3
Log10 Count Rate [1, 7]: 2.317
Log10 Count Rate [1, 17]: 2.317
TEM 2cat ([2]; Fig S10 panel D): 0
Fibril ([2]; Fig S10 panel E): 0
TEM 2cat [2, 15]: 0
Fibril ([2]; FigS12 panel B, TEM): 0
Fibril / Fibril Formation ([2]; TEM): 0
Fibril [2, 9]: 0
Fibril [2, 10]: 0
Zeta-Pot. [3]: -7.773
Zeta pot. / mV [3]: -7.8 mV
Zeta-Potential / mV [3, 13]: -4.618 mV
Zeta-Potential / mV [3, 14]: -7.77 mV
Count Rate [4]: 207.3
Log10 Count Rate [4]: 2.317

CKAKAQANMWQ
Log10 Count Rate [1, 5]: 0.9526
Count Rate / kcps [1]: 9 kcps
Log10 Count Rate [1, 16]: 1 and 0.9528
Log10 Count Rate [1, 7]: 0.9526
Log10 Count Rate [1, 17]: 0.9526
TEM 2cat ([2]; Fig S10 panel D): 0
Fibril ([2]; Fig S10 panel E): 0
TEM 2cat [2, 15]: 0
Fibril ([2]; FigS12 panel B, TEM): 0
Fibril / Fibril Formation ([2]; TEM): 0
Fibril [2, 9]: 0
Fibril [2, 10]: 0
Zeta-Pot. [3]: 0.7373
Zeta pot. / mV [3]: 0.7 mV
Zeta-Potential / mV [3, 13]: 2.155 mV
Zeta-Potential / mV [3, 14]: 0.74 mV
Count Rate [4]: 8.967
Log10 Count Rate [4]: 0.9526

CKFKFQFW
Log10 Count Rate [1, 5]: 4.466
Count Rate / kcps [1]: 29211 kcps
Log10 Count Rate [1, 6]: 4.466
Log10 Count Rate [1, 16]: 4.466
Log10 Count Rate [1, 7]: 4.466
TEM 2cat [2, 8]: 1
Fibril ([2]; Fig S10 panel E): 1
Fibril / Fibril Formation ([2]; TEM): 1
Fibril [2, 9]: 1
Fibril [2, 10]: 1
TEM 2cat [2, 11]: 1
Zeta-Pot. [3]: 15.2
Zeta-Potential / mV [3, 13]: 16.02 mV
Zeta-Potential / mV [3, 14]: 15.2 mV
Count Rate [4]: 29210.5
Log10 Count Rate [4]: 4.466

CKFKQFF
Log10 Count Rate [1, 5]: 0.4094
Count Rate / kcps [1]: 3 kcps
Log10 Count Rate [1, 16]: 0.4099
Log10 Count Rate [1, 7]: 0.4094
Log10 Count Rate [1, 17]: 0.4094
TEM 2cat ([2]; Fig S10 panel D): 0
Fibril ([2]; Fig S10 panel E): 0
TEM 2cat [2, 15]: 0
Fibril ([2]; FigS12 panel B, TEM): 0
Fibril / Fibril Formation ([2]; TEM): 0
Fibril [2, 9]: 0
Fibril [2, 10]: 0
Zeta-Pot. [3]: 11.56
Zeta-Potential / mV [3, 13]: 8.055 mV
Zeta-Potential / mV [3, 14]: 11.56 mV
Count Rate [4]: 2.567
Log10 Count Rate [4]: 0.4094

HHHHKIKIKIKIWWWW [TM4]
Log Count Rate ([1]; Fig S8 panels A, C, asymmetric log errors): 4.376
Log Count Rate ([1]; Fig S8 panels B, D): 4.376
Count Rate ([1]; Fig S8 panels B, D, turbidity, derived count rate of scattered light): 23756.7
Zeta Count Rate Category ([1]; category 1 / 0, no key given): 1
Zeta Count Rate / kcps ([1]; derived count rate of scattered light): 23756.66667 kcps
TEM: 1= fibrils, 0= aggregates (micelle), 0.5 = aggregates and fibrils, -1 = nothing obersved, STD prep ([2]; STD prep): 0.5
Zeta Pot. / mV [3]: 14.5 mV
Zeta category ( +1 = if > 4 mV;-1 = if < -4 mV; 0 = -4mV to 4 mV) [3]: 1 (+1 = if > 4 mV)
Zeta-pot. / mV ([3]; zeta potential of peptide, Fig S15 source data): 14.5 mV
